According to patent US9949976B2, “Kinase inhibitor and use thereof” (Sihuan Pharmaceutical Holdings Group Ltd., priority 2013, dated 2018):
pIC50: −log10 of the molar value.

What was measured:
[1] = tested on: Capan-1 human pancreatic cancer cell; experiment: In vivo pharmacodynamics, subcutaneous Capan-1 pancreatic cancer xenograft model; parameters: species or system female BALB/c nude mouse; settings: Capan-1 xenograft, 100 mg/kg PO QD 21 days
Description: Culture medium of Capan-1 pancreatic cancer cell: IMDM culture medium+10% fetal bovine serum+100 U/mL penicillin and 100 μg/mL streptomycin+2 mM glutamine.
Cells were cultured and passaged. Tumor cells in exponential growth phase were used for in vivo tumor seeding. The cells were seeded subcutaneously to right lateral thorax of female BALB/c nude mouse. When tumor grew to a volume of about 150 mm^3, the animals were grouped and administered with a drug. Compound 1 was orally administrated once a day at an amount of 100 mg/kg, for 21 days. The volume of the drug for administration is 0.1 mL/10 g according to animal's body weight.
(§1) Tumor volume was measured with vernier calipers twice a week by measuring the major diameter and the minor diameter. The tumor volume is calculated by the following formula: volume=0.5×(major diameter)×(minor diameter). The relative tumor volume (RTV) and the proliferation ratio (T/C) were calculated according to the result of measurement. RTV=Vt/V0, wherein Vt is the average tumor volume on the t day after grouping, and V0 is the average tumor volume on the day of grouping. T/C=RTV of treatment group/RTV of solvent control group×100%.
SPSS statistical software was used for T test on the 2 groups of independent samples, and for group statistical analysis of tumor volumes. p<0.05 was regarded as having significant difference.

[2] = tested on: esophageal cancer PDX model; experiment: In vivo pharmacodynamics, esophageal cancer PDX model; parameters: species or system female BALB/c nude mouse; settings: 150 mg/kg PO QD 21 days
Description: (§2) Tumor tissues were harvested from tumor-bearing mice of esophageal cancer PDX model, cut into pieces with diameter of 2-4 mm and seeded subcutaneously to right lateral thorax of female BALB/c nude mouse. When the tumors' average volume reached about 150 mm^3, the animals were grouped and administered with a drug. Compound 1 was orally administrated once a day at an amount of 150 mg/kg, for 21 days. The volume of the drug for administration is 0.1 mL/10 g according to animal's body weight.
as §1, with “diameter)^2.” for “diameter).”, “T/C (%)=RTV” for “T/C=RTV”
(§3) One-way ANOVA was used for analysing the group statistical analysis of tumor volumes. p<0.05 was regarded as having significant difference.

liver cancer PDX model = experiment: In vivo pharmacodynamics, liver cancer PDX model; parameters: species or system female NU/NU nude mouse; settings: 200 mg/kg PO QD 21 days
Description: as §2, with “liver” for “esophageal”, “[…]” for “2-4”, “back” for “right lateral thorax”, “NU/NU” for “BALB/c”, “100-300” for “about 150”, “200” for “150”
as §1, with “diameter)^2.” for “diameter).”, “T/C (%)=RTV” for “T/C=RTV”
as §3

[3] = tested on: MDA-MB-435S human melanoma cell; experiment: BrdU cell proliferation assay (Cell Signaling kit); type: cell-based; settings: 72 h, read-out: In vitro cell-inhibiting activity IC50 MDA-MB-435S
Description: Experimental method: cell proliferation assay was carried out by BrdU method (BrdU cell proliferation assay kit, Cell Signaling Technology Company).
Preparation of gradient dilution solutions of test compound: the stock solution containing 10 mM test compound was subjected to 4-fold stepwise dilution with DMSO to prepare solutions containing 2.5 mM, 625 μM, 156 μM, 39 μM, 9.8 μM, and 2.5 μM test compound, respectively. 2 μL DMSO-diluted compound was added to 198 μL culture medium containing 10% FBS to prepare […] test compound, wherein the maximum concentration of the test compound was 100 μM, the concentration of DMSO was 1%, and there were 7 concentration gradients.
MDA-MB-435S medium: L-15+10% FBS+0.01 mg/mL insulin
(1) Cells grown to 80% confluence (in exponential growth phase) were digested with pancreatin, and centrifuged to collect the cells. MDA-MB-435S and U87MG cells were re-suspended in FBS-free culture medium, counted, and seeded to a 96-well plate; MDA-MB-435S cells were seeded at 3000 cells/well/81 μL; U87MG cells were seeded at 4000 cells/well/81 MCF-7 cells were resuspended in culture medium containing 1% FBS, and counted and seeded to a 96-well plate, at 4000 cell/well/82 μL. The plates were placed in a cell incubator at 37° C. […]
(9) To each well, stop solution (100 μL) was added, and OD value at 450 nm was measured by ELISA instrument […]

pIC50 [3]	SMILES	T/C [1]	TGI (inhibition ratio of tumor growth) [1]	Tumor volume after administration ([1]; average ± standard error)	Tumor volume before administration ([1]; average ± standard error)	T/C (proliferation ratio) ([2]; 150 mg/kg)	Tumor volume after administration ([2]; average ± standard error)	Tumor volume before administration ([2]; average ± standard error)	T/C (proliferation ratio) (liver cancer PDX model)	Tumor volume after administration (liver cancer PDX model; average ± standard error)	Tumor volume before administration (liver cancer PDX model; average ± standard error)
	CCN1CCN(Cc2cnc(Nc3cc(-c4cc(F)c5nc(C)n(C(C)C)c5c4)c(F)cn3)nc2)CC1 [Compound 1, 5-((4-ethylpiperazin-1-yl)methyl)-N-(5-fluoro-4-(4-fluoro-1-isopropyl-2-methyl-1H-benzo[d]imidazol-6-yl)pyridin-2-yl)pyrimidin-2-amine]	31.5%	68.5%	368 ± 48 mm^3	150 ± 12 mm^3	29%	221.6 ± 27.2 mm^3	177.7 ± 28.5 mm^3	31.74%	199.22 ± 33.76 mm^3	164.8 ± 10.35 mm^3
6.70	CCN1CCN(Cc2ccc(Nc3ncc(F)c(-c4cc(F)c5nc(C)n(C(C)C)c5c4)n3)nc2)CC1 [LY2835219, reference compound]										
